According to patent US4863946A, “2-[2H-(1,3-dihydroisoindole)alkylene]-4,5-dihydroimidazoles and pharmaceutical compositions thereof” (Beecham Group plc, priority 1985, dated 1989):
Structures can show the parent of a compound that is named as a salt.

Biological target: T1, α2-Adrenoceptor (Homo sapiens, UniProt P08913)
T1 construct: from tissue; host or cells: human platelets (membranes)
T1 sequence (P08913 1-465): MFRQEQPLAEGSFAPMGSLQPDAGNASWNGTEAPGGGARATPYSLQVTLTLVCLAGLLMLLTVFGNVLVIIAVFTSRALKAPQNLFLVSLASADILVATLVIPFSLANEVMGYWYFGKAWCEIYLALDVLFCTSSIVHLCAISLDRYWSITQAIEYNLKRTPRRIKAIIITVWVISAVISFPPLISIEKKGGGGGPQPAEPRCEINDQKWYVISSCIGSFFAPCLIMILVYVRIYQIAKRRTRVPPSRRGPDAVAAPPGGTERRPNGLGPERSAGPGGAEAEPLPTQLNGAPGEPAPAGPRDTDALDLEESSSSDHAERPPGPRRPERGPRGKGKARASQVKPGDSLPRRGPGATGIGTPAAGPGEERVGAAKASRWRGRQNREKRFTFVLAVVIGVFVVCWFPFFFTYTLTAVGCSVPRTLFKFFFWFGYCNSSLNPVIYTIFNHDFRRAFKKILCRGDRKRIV
Assay: α2-Adrenoceptor Binding ([3H] Rauwolscine, human platelet membranes)
Settings: [3H] Rauwolscine 0.5-1.0 nM, 30 minutes at 30° C., read-out: Binding Affinity. Ki
Description: (A) α2-Adrenoceptor Binding
Human platelet membranes were incubated with [^3 H] Rauwolscine (0.5-1.0 nM) for 30 minutes at 30° C. with varying concentrates of the drug (0.1-10,000 nM). The binding assay was stopped by filtering and rinsing on GF/B glass fibre filters. Binding Affinity (Ki) was calculated using the Ching Prussoff equation.

Row | Ki [nM] | Compound
1 | 5 | c1ccc2c(c1)CN(CC1=NCCN1)C2 [Example 1, 2-[2H-(1,3-Dihydroisoindole)methyl]-4,5-dihydroimidazole]
2 | 7 | Clc1cccc2c1CN(CC1=NCCN1)C2 [Example 2, 2-[2H-(4-Chloro-1,3-dihydroisoindole)methyl]-4,5-dihydroimidazole]
3 | 13 | Clc1ccc2c(c1)CN(CC1=NCCN1)C2 [Example 3, 2-[2H-(5-Chloro-1,3-dihydroisoindole)methyl]-4,5-dihydroimidazole]
4 | 20 | c1ccc2c(c1)CCN(CC1=NCCN1)C2 [Example 4, 2-[(1,2,3,4-Tetrahydroisoquinoline)methyl]-4,5-dihydroimidazole]
5 | 164 | Fc1ccc2c(c1)CN(CC1=NCCN1)C2 [Example 5, 2-[2H-(5-Fluoro-1,3-dihydroisoindole)methyl]-4,5-dihydroimidazole]
6 | 89 | COc1ccc2c(c1)CN(CC1=NCCN1)C2 [Example 6, 2-[2H-(5-Methoxy-1,3-dihydroisoindole)methyl]-4,5 dihydroimidazole dihydrochloride]
7 | 22 | Cc1ccc2c(c1)CN(CC1=NCCN1)C2 [Example 7, 2-[2H-(5-Methyl-1,3-dihydroisoindole)methyl]-4,5-dihydroimidazole]
